Measured values taken from PMC7168327, “Designed Antimicrobial Peptides for Topical Treatment of Antibiotic Resistant Acne Vulgaris” (Antibiotics, 2020).
Values after ≈ are worked out from the molar mass of the structure shown. “Also recorded” adds a separate entry of the source. Bridge positions count the residues as written; N and C are the ends. Peptide text beside a SMILES is read from it.

Assays:
[1] = system: bioluminescent human immortalized keratinocytes (HaCaT); test: Mammalian cytotoxicity, bioluminescent human keratinocytes; format: cell-based; settings: bioluminescent HaCaT
Description: (§1) Noninvasive and real-time monitoring of mammalian cytotoxicity to assess the potential skin toxicity of the dAMPs was evaluated using bioluminescent human immortalized keratinocytes (HaCaT, AddexBio, San Diego, CA, USA). The bioluminescent variant of HaCaT was constructed by transfection with a luciferase gene (RediFect Red-Fluc-Puromycin, Cat# CL596002). Keratinocytes (1 × 10^4 cells, 100 μL) were plated in 96-well black-walled plates. The candidate dAMPs were 2-fold serially diluted from 1024 µg/mL in growth medium supplemented with 150 µg/mL D-luciferin. Each concentration was performed in triplicate, with the final volume being 200 μL. Imaging was performed at select times (0, 15, and 30 min and 1, 3, 5, and 8 h) after the addition of the dAMP, and compared to concurrently run vehicle-control, using an IVIS Lumina imaging system (Caliper Life Sciences, Inc., Hopkinton, MA, USA). For imaging, the 96-well plate was positioned on the stage (12.5-cm field of view), with an open emission filter, binning of 4, and f-stop 1 and a 1-min exposure time. Data analysis was performed using the Living Image software program (version 4.3, Caliper Life Sciences, Inc.). The dAMP concentrations required to kill 10% and 50% of keratinocytes were determined using GraphPad Prism 7 (GraphPad Software, San Diego, CA, USA).

C. acnes HL045PA1 = format: cell-based, Cutibacterium acnes; settings: C. acnes HL045PA1; RCM broth, anaerobic, 1 × 10^6 CFU per mL, two-fold dilutions 0.5–32 μg/mL, 48 h, OD 600 nm; mean of three replicates
Description: (§2) The ten antibiotic resistant C. acnes clinical isolates were acquired from BEI resources with the two reference strains obtained from American Type Culture Collection (ATCC, Manassas, VA, USA). C. acnes is a relatively slow-growing, typically aerotolerant anaerobic so all in vitro C. acnes experiments were performed under anaerobic conditions.
(§3) Single colonies were inoculated in Reinforced Clostridium Medium (RCM) broth supplemented with sodium thioglycolate and incubated at 37 °C, with shaking at 200 rpm, for 2 or 3 days to reach logarithmic growth (OD600nm = 1.0). Each C. acnes (1 × 10^6 CFU per mL) was incubated with dAMP or clindamycin at two-fold serial dilutions (0.5–32 μg per mL) in RCM on a 96-well microplate for 48 h. Three replicas were included for each test article concentration. Bacterial growth was measured by optical density at 600 nm to determine the MIC for each dAMP applied.

C. acnes HL053PA1 = format: cell-based, Cutibacterium acnes; settings: C. acnes HL053PA1; RCM broth, anaerobic, 1 × 10^6 CFU per mL, two-fold dilutions 0.5–32 μg/mL, 48 h, OD 600 nm; mean of three replicates
Description: as §2, §3

C. acnes HL056PA1 = format: cell-based, Cutibacterium acnes; settings: C. acnes HL056PA1; RCM broth, anaerobic, 1 × 10^6 CFU per mL, two-fold dilutions 0.5–32 μg/mL, 48 h, OD 600 nm; mean of three replicates
Description: as §2, §3

C. acnes HL072PA1 = format: cell-based, Cutibacterium acnes; settings: C. acnes HL072PA1; RCM broth, anaerobic, 1 × 10^6 CFU per mL, two-fold dilutions 0.5–32 μg/mL, 48 h, OD 600 nm; mean of three replicates
Description: as §2, §3

C. acnes ATCC6919 = format: cell-based, Cutibacterium acnes; settings: C. acnes ATCC6919; RCM broth, anaerobic, 1 × 10^6 CFU per mL, two-fold dilutions 0.5–32 μg/mL, 48 h, OD 600 nm; mean of three replicates
Description: as §2, §3

C. acnes ATCC11827 = format: cell-based, Cutibacterium acnes; settings: C. acnes ATCC11827; RCM broth, anaerobic, 1 × 10^6 CFU per mL, two-fold dilutions 0.5–32 μg/mL, 48 h, OD 600 nm; mean of three replicates
Description: as §2, §3

C. acnes HL043PA2 = test: Multidrug-resistant C. acnes intradermal murine infection model; format: in vivo; settings: topical 25 μL, BALB/c mice; for mean bacterial burden in skin (CFU/g): 7 applications 2–74 h post infection, skin harvested at 96 h, n = 6
Description: All animals received care in compliance with the Guide for the Care and Use of Laboratory Animals (8th Edition, National Institutes of Health Publication, 2011). All studies were approved by the Institutional Animal Care and Use Committee. Female BALB/c mice, 5 to 7 weeks, were obtained from Envigo Laboratories Inc (Indianapolis, IN, USA). General anesthesia consisted of an intraperitoneal injection of ketamine 100 mg/kg and xylazine 10 mg/kg (Vedco, Inc., St. Joseph, MO, USA).
Mice were inoculated via intradermal (ID) injection of the antibiotic-resistant C. acnes HL043PA2 (7.0 log10 CFU, 50 μL, BEI Resources, HM-514, [14]). The day prior to infection, each mouse was anesthetized using isoflurane, and an area of approximately 1″ × 1″ of skin on the dorsal area of each mouse was shaved and cleared of hair using the depilatory agent Nair®. Beginning 2 h after infection, mice were anesthetized and RP556, formulated in 2% hydroxypropyl methylcellulose in water, viscosity 3000–5600 cP, or 40 mg/mL clindamycin (4%) was administered topically, at 25 μL twice daily for a total of 7 applications (2, 14, 26, 38, 50, 62 and 74 h post infection). Abscesses were harvested at 96 h post-challenge (or Day 7 for untreated control) and assessed for bacterial CFU per gram of skin tissue.

[2] = system: C. acnes HL043PA2 compared to human keratinocytes; format: cell-based
Description: In evaluating the clinical utility of each of the candidate dAMPs for C. acnes treatment, the Therapeutic Index was determined. The Therapeutic Index is defined as the ratio of concentration at which the dAMP is active against the prokaryotic C. acnes pathogen without inducing cytotoxic damage to the surrounding mammalian cells. The EC10 and EC50 doses, defined as the concentrations required to kill 10% and 50% respectively of human keratinocytes following 8 h incubation with each of the Riptide dAMPs, are tabulated and graphed in Table 2 and Figure 3, respectively. The larger the Therapeutic Index, the greater the specificity of the dAMP for destroying C. acnes cells.
as §3, §1

Structure (SMILES): CC[C@H](C)[C@@H]1NC(=O)CNC(=O)[C@H](CCCCN)NC(=O)[C@H](Cc2ccc(O)cc2)NC(=O)[C@@H]2CSSC[C@H](NC1=O)C(=O)N[C@@H](Cc1ccc(O)cc1)C(=O)N[C@@H](CCCCN)C(=O)N[C@@H](CCCCN)C(=O)N[C@H](C(=O)N[C@@H](CCCCN)C(N)=O)CSSC[C@H](NC(=O)[C@H](Cc1c[nH]c3ccccc13)NC(=O)[C@@H](N)CCCNC(=N)N)C(=O)N[C@@H](Cc1ccccc1)C(=O)N[C@@H](CCCCN)C(=O)N[C@@H](C(C)C)C(=O)N2 [RP556] (H-RWCFKVCYKGICYKKCK-NH2; disulfide 3-16, 7-12)
- viability of human keratinocytes ([1]; 8 h incubation at 256 μg/mL): greater than 80%
- EC10, concentration required to kill 10% of human keratinocytes ([1]; 1 × 10^4 cells/well, 8 h incubation, 2-fold dilutions from 1024 µg/mL, triplicate, IVIS imaging, GraphPad Prism 7): 276 µg/mL
- MIC (C. acnes HL045PA1): 4 µg/mL (≈ 1.86 µM)
- MIC (C. acnes HL053PA1): 4 µg/mL (≈ 1.86 µM)
- MIC (C. acnes HL056PA1): 2 µg/mL (≈ 0.929 µM)
- MIC (C. acnes HL072PA1): 8 µg/mL (≈ 3.72 µM)
- MIC (C. acnes ATCC6919): 4 µg/mL (≈ 1.86 µM)
- MIC (C. acnes ATCC11827): 8 µg/mL (≈ 3.72 µM)
- mean bacterial burden in skin (CFU/g) (C. acnes HL043PA2; RP556 5 mg/mL (0.5%) in 2% hydroxypropyl methylcellulose): below the detectable limit; also recorded: completely eliminated C. acnes infection
- mean bacterial burden in skin (CFU/g) (C. acnes HL043PA2; RP556 20 mg/mL in 2% hydroxypropyl methylcellulose): below the detectable limit
- clinical observations and body weight following treatment (C. acnes HL043PA2; 5 and 20 mg/mL, 7 applications): no untoward clinical observations or changes in body weight
- Therapeutic Index (EC10 / MIC) ([2]; keratinocyte EC10 (8 h) versus MIC against HL043PA2 C. acnes): 70
- Therapeutic Index (EC50 / MIC) ([2]; keratinocyte EC50 (8 h) versus MIC against HL043PA2 C. acnes): 130
